Reference: paper PMC9737772, “Synthesis and Anti-Inflammatory Activity of 1-Methylhydantoin Cinnamoyl Imides” (Molecules, 2022)
Each block holds one molecule with its values, some of them ahead of it.

Tests used:
[1] = Cytotoxicity determination by CCK-8; assay type: cell-based; conditions: mouse, RAW264.7 macrophage cells, RAW264.7 cells
Description: (§1) RAW264.7 mouse macrophages were purchased from Zhongqiao Xinzhou and cultured in DMEM supplemented with 10% fetal bovine serum (FBS) and 1% penicillin/streptomycin in a 37 °C, 5% CO2 incubator. The cells were passaged every two days to maintain the monolayer cell state.
The CCK-8 kit was used to determine the cytotoxicity of the target compounds (1–5) to RAW264.7 cells. The well-growing cells were subcultured in a 96-well plate. After the cells adhered to the wall, the experimental group was added with a medium containing different concentrations of compounds to make the final concentration reach 5, 10, 20, 40, 80, 160 and 320 μmoL/L. The control group was added with a medium without compound, and a blank group without cells or compound was set at the same time. After culturing in a constant temperature incubator for a period, CCK-8 solution was added to produce yellow formazan product. The OD value was measured by the microplate reader at the detection wavelength of 450 nm, and the cell survival rate was calculated. The cell survival rate formula is as follows:(1) Cell Survival Rate %=ODe−ODb/ODc−ODb×100% where ODe was the OD value of the experimental group, ODb was the OD value of the blank group, and ODc was the OD value of the control group.

[2] = tested on: TNF-α secretion in RAW264.7 cells induced by LPS; experiment: TNF-α content in supernatant of LPS-induced RAW264.7 cells (ELISA); assay type: cell-based, mouse; conditions: 20 μM, LPS 1 ug/mL, 24 h, RAW264.7, vs model group
Description: Tumor necrosis factor-α (TNF-α) is a pleiotropic proinflammatory cytokine, known for its proinflammatory activity. To explore the inhibitory effects of five compounds on TNF-α, ELISA was used to determine the content of inflammatory factor TNF-α in the supernatant of RAW264.7 cells stimulated by LPS. RAW264.7 cells secreted a large amount of inflammatory-factor TNF-α 24 h after LPS (1 ug/mL) induction.
as §1
(§2) The RAW264.7 cells in the logarithmic growth phase were seeded in a 24-well plate and placed in a 37 °C, 5% CO2 constant temperature incubator for culture. After 24 h, the culture medium was discarded. The blank group was added with 10% FBS DMEM 1 mL. The group was added with a medium containing 1 ug/mL LPS, and the experimental group was added with LPS and different concentrations of the target compound to make the final volume 1 mL. After 24 h of culture, the cell supernatant was taken and stored in a refrigerator at −20 °C for later use. The Griess kit was used to determine the concentration of NO in the supernatant, and a double antibody sandwich ELISA kit was used to detect TNF-α and IL-1β.

[3] = tested on: IL-1β secretion in RAW264.7 cells induced by LPS; experiment: IL-1β content in supernatant of LPS-induced RAW264.7 cells (ELISA); assay type: cell-based, mouse; conditions: 20 μM, LPS, 24 h, RAW264.7, vs model group
From the text: Interleukin-1β (IL-1β) has strong proinflammatory activity and can induce the production of a variety of proinflammatory mediators, such as cytokines and chemokines. In this work, the ELISA method was used to determine the IL-1β content in the supernatant of RAW264.7 cells stimulated by LPS to evaluate the effects of five compounds on IL-1β secretion.
as §1, §2

[4] = tested on: xylene-induced ear edema in mice; experiment: Xylene-induced ear edema in mice; assay type: in vivo, Kunming mice; conditions: for Degree of Edema: 30 μL xylene, 30 min, mean ± SD, n = 6; for Inhibition of ear swelling: xylene-induced ear edema
Description: To evaluate the differences in anti-inflammatory effects of the five compounds, the in vivo anti-inflammatory experiment was conducted based on the acute inflammation model of ear swelling induced by xylene. Under the inflammatory effect of 30 μL of xylene, the degree of ear swelling in the blank group and each experimental group was different. […] With an increase in dose the degree of ear swelling decreased, and the effect of ear swelling inhibition was more significant at high dose (100 mg/kg). Under the action of drugs, the five target compounds (1–5) have significant inhibitory effects on ear swelling (Figure 6).
Adult male Kunming mice (18–20 g) were bought from Liaoning Changsheng Biotechnology Co., Ltd. (Shenyang, China, License No. SCXK (Liao) 2015-0001). The breeding is carried out under standard conditions without pathogens (constant room temperature 20–22 °C, 55 ± 5% humidity, 12 h light–dark cycle and free access to food and water). The research protocol has been approved by the Animal Experiment Ethics Committee of the School of Pharmacy of Jilin University (20190048). All experimental operations follow the principles of laboratory animal care, and all animal experiments are conducted in accordance with the Guide for the Care and Use of Laboratory Animals (released by the National Research Council).
In this experiment, Kunming mice were randomly divided into two groups. One group was given 5% sodium carboxymethyl cellulose solution as the blank group, and the other group was given different concentrations of the target compound as the experimental group (high, medium and low doses); continuous intragastric administration was two days and the volume of intragastric administration was 0.2 mL. One hour after the last administration, 30 μL of xylene was evenly smeared on both sides of the mouse’s right ear. After 30 min, the mouse’s right ear was obviously red and swollen and the capillary congestion was severe. Cervical vertebrae were dislocated and sacrificed. The ears on both sides were quickly cut off, an 8 mm ear punch was used to punch holes at the same position on the ears on both sides and they were immediately weighed to calculate the weight difference.
The formula for the difference in ear weight is as follows:(2) D=Wr−Wl where Wr was the weight of the right ear and Wl was the weight of the left ear.
The formula for the inhibition rate of ear swelling is as follows:(3) Inhibition %=Dc−Dt/Dc×100% where Dc was the extent of ear edema of the control group and Dt was the extent of ear edema of the treatment group.

[5] = tested on: xylene-induced ear edema in mice; parameters: method as in PMID 31247960, doi:10.2174/157018012800673092; conditions: previous study; cited from earlier work
[6] = 25 mg/kg intragastric for two days
[7] = 50 mg/kg intragastric for two days
[8] = 100 mg/kg (high dose) intragastric
[9] = 100 mg/kg intragastric for two days

melting point: 148.3 to 149.8 °C
Structure (SMILES): COc1cc(/C=C/C(=O)N2C(=O)CN(C)C2=O)ccc1OC(C)=O [Compound 5, (E)-2-methoxy-4-(3-(3-methyl-2,5-dioxoimidazolidin-1-yl)-3-oxoprop-1-en-1-yl)phenyl acetate]
CC50 [1]: 232 µM
inhibition of TNF-α secretion [2]: no obvious inhibitory effect on TNF-α
inhibition of IL-1β secretion [3]: no obvious inhibitory effect on IL-1β
Degree of Edema [4, 6]: 10.46 ± 0.64 mg
Inhibition of ear swelling ([4]; 25 mg/kg intragastric): 14.61%
Degree of Edema [4, 7]: 7.95 ± 0.71 mg
Inhibition of ear swelling ([4]; 50 mg/kg intragastric): 35.10%
Inhibition of ear swelling [4, 8]: 52.08%
Degree of Edema [4, 9]: 5.87 ± 0.75 mg

melting point: 140.6 to 141.5 °C
Structure (SMILES): CN1CC(=O)N(C(=O)C=Cc2ccccc2)C1=O [Compound 1, 3-cinnamoyl-1-methylimidazolidine-2,4-dione]
CC50 [1]: 264 µM
inhibition of TNF-α secretion [2]: no obvious inhibitory effect on TNF-α
inhibition of IL-1β secretion [3]: no obvious inhibitory effect on IL-1β
Degree of Edema [4, 6]: 9.84 ± 0.72 mg
Inhibition of ear swelling ([4]; 25 mg/kg intragastric): 19.67%
Degree of Edema [4, 7]: 8.47 ± 0.64 mg
Inhibition of ear swelling ([4]; 50 mg/kg intragastric): 30.86%
Inhibition of ear swelling [4, 8]: 44.16%
Degree of Edema [4, 9]: 6.84 ± 0.61 mg

melting point: 164.8 to 166.1 °C
Structure (SMILES): CN1CC(=O)N(C(=O)/C=C/c2ccc3c(c2)OCO3)C1=O [Compound 3, (E)-3-(3-(benzo[d][1,3]dioxol-5-yl)acryloyl)-1-methylimidazolidine-2,4-dione]
CC50 [1]: 184 µM
inhibition of TNF-α secretion [2]: no obvious inhibitory effect on TNF-α
inhibition of IL-1β secretion [3]: no obvious inhibitory effect on IL-1β
Degree of Edema [4, 6]: 9.41 ± 1.37 mg
Inhibition of ear swelling ([4]; 25 mg/kg intragastric): 23.18%
Degree of Edema [4, 7]: 9.05 ± 0.84 mg
Inhibition of ear swelling ([4]; 50 mg/kg intragastric): 26.12%
Inhibition of ear swelling [4, 8]: 33.06%
Degree of Edema [4, 9]: 8.20 ± 0.27 mg

Structure (SMILES): CN1CC(=O)NC1=O [MHD, 1-Methylhydantoin]
effect on ear edema in mice caused by xylene [5]: can reduce ear edema in mice caused by xylene
